Source: the supplement of paper PMC10627819

What was measured:
Test in all cases: fitness (endpoint OD595 vs no drug) (fraction); higher = more growth
[1] = system: S. aureus DSM 20231
Summary of the method: (§1)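 In 384-well plates at 37 °C, cultures began at OD595 0.01 in 30 µl, with 55 µl used for S. pneumoniae. OD595 readings every 30 min for 14 h were corrected by the first reading. Fitness divides the stationary-phase transition optical density by the robust mean of no-drug control wells. The result is capped at 1.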

[2] = system: S. aureus Newman
Summary of the method: as §1

[3] = system: S. pneumoniae D39V
Summary of the method: as §1
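Note: OD595 on entry to stationary phase over no-drug wells; at most 1.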

CO/N=C(\C(=O)N[C@@H]1C(=O)N2C(C(=O)O)=C(COC(C)=O)CS[C@H]12)c1csc(N)n1 [Cefotaxime] + CO[C@@]12[C@H](COC(N)=O)C3=C(C(=O)C(C)=C(N)C3=O)N1C[C@@H]1N[C@@H]12 [Mitomycin C]
Conditions	fitness
[1], first compound 0.039 µg/mL, partner 0.0156 µg/mL	0.581
[1], first compound 0.039 µg/mL, partner 0.0312 µg/mL	0.532
[1], first compound 0.039 µg/mL, partner 0.0625 µg/mL	0.607
[1], first compound 0.078 µg/mL, partner 0.0156 µg/mL	0.581
[1], first compound 0.078 µg/mL, partner 0.0312 µg/mL	0.577
[1], first compound 0.078 µg/mL, partner 0.0625 µg/mL	0.537
[1], first compound 0.156 µg/mL, partner 0.0156 µg/mL	0.538
[1], first compound 0.156 µg/mL, partner 0.0312 µg/mL	0.562
[1], first compound 0.156 µg/mL, partner 0.0625 µg/mL	0.54
[1], first compound 0.312 µg/mL, partner 0.0156 µg/mL	0.483
[1], first compound 0.312 µg/mL, partner 0.0312 µg/mL	0.495
[1], first compound 0.312 µg/mL, partner 0.0625 µg/mL	0.457
[2], first compound 0.078 µg/mL, partner 0.0156 µg/mL	0.577
[2], first compound 0.078 µg/mL, partner 0.0312 µg/mL	0.574
[2], first compound 0.078 µg/mL, partner 0.0625 µg/mL	0.422
[2], first compound 0.156 µg/mL, partner 0.0156 µg/mL	0.48
[2], first compound 0.156 µg/mL, partner 0.0312 µg/mL	0.414
[2], first compound 0.156 µg/mL, partner 0.0625 µg/mL	0.234
[2], first compound 0.312 µg/mL, partner 0.0156 µg/mL	0.313
[2], first compound 0.312 µg/mL, partner 0.0312 µg/mL	0.22
[2], first compound 0.312 µg/mL, partner 0.0625 µg/mL	0.138
[3], first compound 0.0018 µg/mL, partner 0.001075 µg/mL	0.978
[3], first compound 0.0018 µg/mL, partner 0.002 µg/mL	0.789
[3], first compound 0.0018 µg/mL, partner 0.00215 µg/mL	0.949
[3], first compound 0.0018 µg/mL, partner 0.004 µg/mL	0.81
[3], first compound 0.0018 µg/mL, partner 0.0043 µg/mL	0.863
[3], first compound 0.0018 µg/mL, partner 0.008 µg/mL	0.702
[3], first compound 0.0035 µg/mL, partner 0.001075 µg/mL	0.976
[3], first compound 0.0035 µg/mL, partner 0.002 µg/mL	0.781
[3], first compound 0.0035 µg/mL, partner 0.00215 µg/mL	0.922
[3], first compound 0.0035 µg/mL, partner 0.004 µg/mL	0.767
[3], first compound 0.0035 µg/mL, partner 0.0043 µg/mL	0.838
[3], first compound 0.0035 µg/mL, partner 0.008 µg/mL	0.647
[3], first compound 0.007 µg/mL, partner 0.001075 µg/mL	0.895
[3], first compound 0.007 µg/mL, partner 0.002 µg/mL	0.694
[3], first compound 0.007 µg/mL, partner 0.00215 µg/mL	0.834
[3], first compound 0.007 µg/mL, partner 0.004 µg/mL	0.679
[3], first compound 0.007 µg/mL, partner 0.0043 µg/mL	0.802
[3], first compound 0.007 µg/mL, partner 0.008 µg/mL	0.637

fitness, [2], one replicate
Conditions	first compound 0.625 µg/mL	first compound 1.25 µg/mL	first compound 2.5 µg/mL
partner 0.0156 µg/mL	0.0313	0.0209	0.0581
partner 0.0312 µg/mL	0.025	0.0017	0.0229
partner 0.0625 µg/mL	0.0258	0	0.0272
